Here are results for seven molecules from PMC9081086, “Stapling strategy enables improvement of antitumor activity and proteolytic stability of host-defense peptide hymenochirin-1B” (RSC Advances, 2018).

SMILES strings stand for the structures. Positions of bridges follow the written chain, without caps; N, C: chain ends. Non-standard residues stand in square brackets, D forms with d. Residues, ends and D or L forms follow the SMILES beside them. R8 = C=CCCCCCC[C@@](C)(N)C(=O)O; S5 = C=CCCC[C@](C)(N)C(=O)O

Series [1] can be described thus: Circular dichroism, α-helicity. Type of series: physicochemical. As to conditions: CD, TFE/water (1:1), 50 μM peptide, 25 °C, 1 mm cuvette, calculated from [θ]222. The method, then:
The linear and stapled peptides were dissolved in the trifluoroethanol (TFE) and water (1 : 1) to a final concentration of 50 μM, respectively. The CD spectra were obtained with 1 mm quartz cuvette on Jasco-815 spectropolarimeter at 25 °C. The measurement parameters were set up as follows: wavelength, 185–260 nm; step resolution, 0.5 nm; speed, 20 nm min^−1. All spectra were converted to a uniform scale of molar ellipticity after background subtraction. The curves were smoothed using standard parameters. The ellipticity in the acquired CD spectra was converted to the molar ellipticity using the equation: [θ] = θ/(10 × c × l), where, [θ] is the Molar ellipticity (deg cm^2. d mol^−1), θ is the observed ellipticity corrected for the buffer at a given wavelength (m deg), c is the molar concentration and l is the path length (cm). The helicity of each peptide was calculated as described in a literature based on the ellipticity of the peptide's spectrum at 222 nm and the number of amino acids in the peptide sequence.
Circular dichroism (CD) spectroscopy was used to investigate the secondary structures of the stapled and template peptides to probe structural changes induced by conformation constraint in a membrane-like milieu, including […] (TFE) and water (1 : 1). […] (Table 1, ESI ^†).

Series [2] concerns human normal liver cell LO-2. Kind of series: MTT toxicity against normal cells, LO-2. In kind it is cell-based. As to conditions: 96 h. The method, then:
(§1) Anti-tumor activity was evaluated by the standard MTT assay with a slight modification measuring the median inhibitory concentration (IC50) values.[35] HCT-116 cells, HepG2 cells and A549 cells were plated in triplicate wells into a 96-well plate at 5 × 10^3/well and cultured routinely for 24 h. Cells were incubated with increasing concentrations of hymenochirin-1B and its analogs (0.1–30 μM) and continued to culture with DMEM plus 10% FBS at 37 °C and 5% CO2. After being incubated for 96 h, the absorbance A value was determined by MTT at 540 nm. The untreated HCT-116 cells, HepG2 cells and A549 cells were used as control. Each experiment was performed in duplicate. The inhibitory rate was calculated according to the following formula: inhibitory rate = (a value of the control group − a value of the study group)/a value of the control group × 100%.
(§2) To further research the selectivity of these peptides towards cancer cells over normal cells. The growth-inhibitory activities of peptides were evaluated using the 3-(4,5-dimethylthiazol-2-yl)-2,5-diphenyltetrazolium bromide (MTT) assay against three normal cells,[35] namely, human normal liver cell LO-2, human normal Lung cell BEAS-2 and human normal kidney cell 293 T (Table S2 ^†). The experiments procedure was performed just same as growth inhibition of the peptides against tumor cells. […] It might be due to the higher averaged hydrophobicity produced by six or nine additional methylene and two olefinic carbons to the peptide to increase toxicity to human normal cells. This situation may be resolved through the addition of polar character and glycosylation into the sequence to decrease the averaged hydrophobicity to improve the selectivity of these peptides towards cancer cells over normal cells. These modifications of these peptides are under way, and the present study was focused on the improved anti-tumor activity of template peptide hymenochirin-1B.

For series [3], the system named is human normal Lung cell BEAS-2. Kind of series: MTT toxicity against normal cells, BEAS-2B. In kind it is cell-based. As to conditions: 96 h. The method, then: as §1, §2
Series [4] deals with human normal kidney cell 293 T. Briefly: MTT toxicity against normal cells, 293T. Type of series: cell-based. As to conditions: 96 h. How it is done: as §1, §2

With `CC[C@H](C)[C@H](N)C(=O)N[C@@H](CCCCN)C(=O)N[C@@H](CC(C)C)C(=O)N[C@@H](CO)C(=O)N[C@@]1(C)CCCC=CCCC[C@@](C)(C(=O)N[C@@H](CC(N)=O)C(=O)N[C@@H](CC(C)C)C(=O)N[C@@H](CCCCN)C(=O)N[C@@H](CCCCN)C(=O)N[C@H](C(=O)N[C@@H](CC(C)C)C(=O)N[C@@H](CCCCN)C(=O)NCC(=O)N[C@@H](C)C(=O)N[C@H](C(=O)N[C@@H](CCCCN)C(=O)NCC(=O)N[C@@H](C)C(=O)N[C@H](C(=O)N[C@@H](C)C(=O)N[C@H](C(=O)N[C@@H](C)C(=O)N[C@@H](CCCCN)C(=O)N[C@@H](CCSC)C(=O)N[C@H](C(N)=O)C(C)C)C(C)C)[C@@H](C)CC)[C@@H](C)CC)C(C)C)NC(=O)[C@H](CCCCN)NC(=O)[C@H]([C@@H](C)O)NC(=O)[C@H](CCC(=O)O)NC1=O` [H-1] (H-IKLS[S5]ETK[S5]NLKKVLKGAIKGAIAVAKMV-NH2; staple 5-9), the “Helicity (%)” value in series [1] is recorded as 49.0%. Also, the “IC50 (μM) LO-2, toxicity against normal cells” value (“IC50 (μM) LO-2, toxicity” below) in series [2] is 7.80 ± 0.21 µM. The “IC50 (μM) BEAS-2B, toxicity against normal cells” value (“IC50 (μM) BEAS-2B, toxicity” below) in series [3] was determined as 9.61 ± 0.35 µM. Besides, in series [4], the “IC50 (μM) 293T, toxicity against normal cells” value (shortened to “IC50 (μM) 293T, toxicity”) was 5.82 ± 0.45 µM.

As to `CC[C@H](C)[C@H](N)C(=O)N[C@@H](CCCCN)C(=O)N[C@@H](CC(C)C)C(=O)N[C@@H](CO)C(=O)N1CCC[C@H]1C(=O)N[C@@H](CCC(=O)O)C(=O)N[C@H](C(=O)N[C@@H](CCCCN)C(=O)N[C@@H](CC(=O)O)C(=O)N[C@@H](CC(N)=O)C(=O)N[C@@H](CC(C)C)C(=O)N[C@@H](CCCCN)C(=O)N[C@@H](CCCCN)C(=O)N[C@H](C(=O)N[C@@H](CC(C)C)C(=O)N[C@@H](CCCCN)C(=O)NCC(=O)N[C@@H](C)C(=O)N[C@H](C(=O)N[C@@]1(C)CCCC=CCCC[C@@](C)(C(=O)N[C@H](C(=O)N[C@@H](C)C(=O)N[C@@H](CCCCN)C(=O)N[C@@H](CCSC)C(=O)N[C@H](C(N)=O)C(C)C)C(C)C)NC(=O)[C@H]([C@@H](C)CC)NC(=O)[C@H](C)NC(=O)CNC1=O)[C@@H](C)CC)C(C)C)[C@@H](C)O` [H-8] (H-IKLSPETKDNLKKVLKGAI[S5]GAI[S5]VAKMV-NH2; staple 20-24), the “Helicity (%)” value in series [1] is on record as 60.5%. The “IC50 (μM) LO-2, toxicity” value in series [2] stood at 24.82 ± 0.44 µM. Further, in series [3], the “IC50 (μM) BEAS-2B, toxicity” value is 12.82 ± 0.25 µM. For the same molecule, the “IC50 (μM) 293T, toxicity” value in series [4] turned out to be 15.58 ± 0.36 µM.

Regarding `CC[C@H](C)[C@H](N)C(=O)N[C@@H](CCCCN)C(=O)N[C@@H](CC(C)C)C(=O)N[C@@H](CO)C(=O)N1CCC[C@H]1C(=O)N[C@@H](CCC(=O)O)C(=O)N[C@H](C(=O)N[C@@H](CCCCN)C(=O)N[C@@H](CC(=O)O)C(=O)N[C@]1(C)CCCCCCC=CCCC[C@@](C)(C(=O)N[C@@H](C)C(=O)N[C@H](C(=O)N[C@@H](CCCCN)C(=O)NCC(=O)N[C@@H](C)C(=O)N[C@H](C(=O)N[C@@H](C)C(=O)N[C@H](C(=O)N[C@@H](C)C(=O)N[C@@H](CCCCN)C(=O)N[C@@H](CCSC)C(=O)N[C@H](C(N)=O)C(C)C)C(C)C)[C@@H](C)CC)[C@@H](C)CC)NC(=O)[C@H](CCCCN)NC(=O)[C@H](CC(C)C)NC(=O)[C@H](C(C)C)NC(=O)[C@H](CCCCN)NC(=O)[C@H](CCCCN)NC(=O)[C@H](CC(C)C)NC1=O)[C@@H](C)O` [H-3] (H-IKLSPETKD[R8]LKKVLK[S5]AIKGAIAVAKMV-NH2; staple 10-17), in series [1], the “Helicity (%)” value was 65.7%. The “IC50 (μM) LO-2, toxicity” value in series [2] was determined as 7.61 ± 0.43 µM. The “IC50 (μM) BEAS-2B, toxicity” value in series [3] is 7.95 ± 0.36 µM. For the same molecule, the “IC50 (μM) 293T, toxicity” value in series [4] was determined as 4.58 ± 0.34 µM.

Regarding `CC[C@H](C)[C@H](N)C(=O)N[C@@H](CCCCN)C(=O)N[C@@H](CC(C)C)C(=O)N[C@@H](CO)C(=O)N1CCC[C@H]1C(=O)N[C@@H](CCC(=O)O)C(=O)N[C@H](C(=O)N[C@@H](CCCCN)C(=O)N[C@@H](CC(=O)O)C(=O)N[C@@H](CC(N)=O)C(=O)N[C@@H](CC(C)C)C(=O)N[C@@H](CCCCN)C(=O)N[C@@H](CCCCN)C(=O)N[C@H](C(=O)N[C@@H](CC(C)C)C(=O)N[C@@H](CCCCN)C(=O)N[C@@]1(C)CCCC=CCCC[C@@](C)(C(=O)N[C@@H](C)C(=O)N[C@H](C(=O)N[C@@H](C)C(=O)N[C@H](C(=O)N[C@@H](C)C(=O)N[C@@H](CCCCN)C(=O)N[C@@H](CCSC)C(=O)N[C@H](C(N)=O)C(C)C)C(C)C)[C@@H](C)CC)NC(=O)[C@H](CCCCN)NC(=O)[C@H]([C@@H](C)CC)NC(=O)[C@H](C)NC1=O)C(C)C)[C@@H](C)O` [H-9] (H-IKLSPETKDNLKKVLK[S5]AIK[S5]AIAVAKMV-NH2; staple 17-21), the “IC50 (μM) LO-2, toxicity” value in series [2] stood at 8.56 ± 0.32 µM. Also, in series [3], the “IC50 (μM) BEAS-2B, toxicity” value amounted to 7.72 ± 0.36 µM. The “IC50 (μM) 293T, toxicity” value in series [4] was found to be 8.66 ± 0.23 µM.

As for `CC[C@H](C)[C@H](N)C(=O)N[C@@H](CCCCN)C(=O)N[C@@H](CC(C)C)C(=O)N[C@@H](CO)C(=O)N1CCC[C@H]1C(=O)N[C@@H](CCC(=O)O)C(=O)N[C@H](C(=O)N[C@@H](CCCCN)C(=O)N[C@@H](CC(=O)O)C(=O)N[C@@H](CC(N)=O)C(=O)N[C@@H](CC(C)C)C(=O)N[C@@H](CCCCN)C(=O)N[C@@H](CCCCN)C(=O)N[C@H](C(=O)N[C@@H](CC(C)C)C(=O)N[C@@H](CCCCN)C(=O)N[C@]1(C)CCCCCCC=CCCC[C@@](C)(C(=O)N[C@H](C(=O)N[C@@H](C)C(=O)N[C@@H](CCCCN)C(=O)N[C@@H](CCSC)C(=O)N[C@H](C(N)=O)C(C)C)C(C)C)NC(=O)[C@H]([C@@H](C)CC)NC(=O)[C@H](C)NC(=O)CNC(=O)[C@H](CCCCN)NC(=O)[C@H]([C@@H](C)CC)NC(=O)[C@H](C)NC1=O)C(C)C)[C@@H](C)O` [H-4] (H-IKLSPETKDNLKKVLK[R8]AIKGAI[S5]VAKMV-NH2; staple 17-24), the “Helicity (%)” value in series [1] was 66.3%.

`CC[C@H](C)[C@H](N)C(=O)N[C@@H](CCCCN)C(=O)N[C@@H](CC(C)C)C(=O)N[C@@H](CO)C(=O)N1CCC[C@H]1C(=O)N[C@@H](CCC(=O)O)C(=O)N[C@H](C(=O)N[C@@H](CCCCN)C(=O)N[C@@H](CC(=O)O)C(=O)N[C@@H](CC(N)=O)C(=O)N[C@@H](CC(C)C)C(=O)N[C@@H](CCCCN)C(=O)N[C@@H](CCCCN)C(=O)N[C@H](C(=O)N[C@@H](CC(C)C)C(=O)N[C@@H](CCCCN)C(=O)NCC(=O)N[C@@H](C)C(=O)N[C@H](C(=O)N[C@@H](CCCCN)C(=O)NCC(=O)N[C@@]1(C)CCCC=CCCC[C@@](C)(C(=O)N[C@@H](CCCCN)C(=O)N[C@@H](CCSC)C(=O)N[C@H](C(N)=O)C(C)C)NC(=O)[C@H](C(C)C)NC(=O)[C@H](C)NC(=O)[C@H]([C@@H](C)CC)NC1=O)[C@@H](C)CC)C(C)C)[C@@H](C)O` [H-7] (H-IKLSPETKDNLKKVLKGAIKG[S5]IAV[S5]KMV-NH2; staple 22-26): the “Helicity (%)” value in series [1] was 65.9%. Moreover, the “IC50 (μM) LO-2, toxicity” value in series [2] worked out at 6.52 ± 0.32 µM. Also, the “IC50 (μM) BEAS-2B, toxicity” value in series [3] worked out at 7.50 ± 0.32 µM. The “IC50 (μM) 293T, toxicity” value in series [4] stood at 7.25 ± 0.26 µM.

For `CC[C@H](C)[C@H](N)C(=O)N[C@@H](CCCCN)C(=O)N[C@@H](CC(C)C)C(=O)N[C@@H](CO)C(=O)N1CCC[C@H]1C(=O)N[C@@H](CCC(=O)O)C(=O)N[C@H](C(=O)N[C@@H](CCCCN)C(=O)N[C@@H](CC(=O)O)C(=O)N[C@@H](CC(N)=O)C(=O)N[C@@H](CC(C)C)C(=O)N[C@@H](CCCCN)C(=O)N[C@@H](CCCCN)C(=O)N[C@H](C(=O)N[C@@H](CC(C)C)C(=O)N[C@@H](CCCCN)C(=O)NCC(=O)N[C@@H](C)C(=O)N[C@H](C(=O)N[C@]1(C)CCCCCCC=CCCC[C@@](C)(C(=O)N[C@@H](CCSC)C(=O)N[C@H](C(N)=O)C(C)C)NC(=O)[C@H](C)NC(=O)[C@H](C(C)C)NC(=O)[C@H](C)NC(=O)[C@H]([C@@H](C)CC)NC(=O)[C@H](C)NC(=O)CNC1=O)[C@@H](C)CC)C(C)C)[C@@H](C)O` [H-6] (H-IKLSPETKDNLKKVLKGAI[R8]GAIAVA[S5]MV-NH2; staple 20-27), the “Helicity (%)” value in series [1] is recorded as 64.9%. Moreover, the “IC50 (μM) LO-2, toxicity” value in series [2] stood at 49.77 ± 0.22 µM. The “IC50 (μM) BEAS-2B, toxicity” value in series [3] came to 46.58 ± 0.42 µM. Further, in series [4], the “IC50 (μM) 293T, toxicity” value worked out at 60.11 ± 0.35 µM.
